Experimental data as given in patent publication US10844071B2, “Substituted [1,2,3]triazolo[4,5-d]pyrimidines that lower stress-induced p-tau” (BUCK INSTITUTE FOR RESEARCH ON AGING, priority 2015, dated 2020).
Converted amounts (≈) assume the structure as drawn. “Also recorded” adds a separate entry of the source. Where a name gives a salt, the structure may show the parent alone. Read-outs that look alike come from different tables or passages of the source.

Legend:
CRF1 = molecular target: T1, CRF1 (Homo sapiens, UniProt P34998); test: CRF1 binding (Ki)
T1 sequence (P34998 24-415): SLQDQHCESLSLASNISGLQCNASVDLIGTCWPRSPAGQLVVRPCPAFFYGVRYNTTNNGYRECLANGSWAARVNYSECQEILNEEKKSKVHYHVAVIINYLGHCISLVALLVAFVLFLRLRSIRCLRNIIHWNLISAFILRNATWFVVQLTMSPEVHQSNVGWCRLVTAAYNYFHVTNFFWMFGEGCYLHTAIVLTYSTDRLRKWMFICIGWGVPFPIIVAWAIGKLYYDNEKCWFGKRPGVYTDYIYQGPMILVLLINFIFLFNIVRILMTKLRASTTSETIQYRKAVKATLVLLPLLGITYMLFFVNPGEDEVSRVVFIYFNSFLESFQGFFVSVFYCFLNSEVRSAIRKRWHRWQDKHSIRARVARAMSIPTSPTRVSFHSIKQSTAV

SH-SY5Y cells [1] = test: Primary screen in SH-SY5Y cells (tau, p-tau); format: cell-based; conditions: for p-tau / tau: SH-SY5Y cells, no CRF
Method: (§1) As described below, in vitro studies were performed using SHSY-5Y cells. These cells are a useful neurological model that differentiate into cells with morphological and biochemical characteristics of mature neurons including mature isoforms of tau.
However, J04 did lower p-tau to the same level as J03 and significant may not have been reached due to low N #.

Solubility in DMSO = format: physicochemical; conditions: organic solvent or mixture, read-out: Solubility
[2] = In vivo pharmacokinetics, brain and plasma levels; design: species or system mouse
PAMPA = format: in vitro ADME; conditions: Tertiary
SH-SY5Y cells [3] = test: Secondary screen in SH-SY5Y cells with CRF stimulation (tau, p-tau, sAPPα); format: cell-based; conditions: for p-tau after CRF exposure / tau after CRF exposure / sAPPα after CRF exposure: SH-SY5Y cells; for p-tau after CRF exposure / tau after CRF exposure: CRF-induced increase; for sAPPα after CRF exposure: FIG. 19
Method: as §1
In an initial study, SHSY-5Y cells were cultured without serum to induce differentiation and increase tau expression. […] The increases were proportional and both were about 50%. J03 (FIG. 4A) reduced the CRF-induced tau increases more than the p-tau increases. The increase in p-tau with CRF was expected, but the increase in tau less predictable as CRF reduces neuronal differentiation (see Chen et al. (2004) Proc. Natl. Acad. Sci. USA, 101(44): 15782-15787), however, it can increase tau accumulation.

J20 mice [4] = test: J17 pilot study in J20 mice (oral, 28 days); format: in vivo, mouse; conditions: for novel object preference: all mice; for sAPPα: both genders; for activity (total interactions): not significant
Method: (§2) Animal experiments were performed using J20 mice. The J20 mouse is a model of for Alzheimer's disease. This model overexpresses human APP with two mutations linked to familial Alzheimer's disease (the APP KM670/671NL (Swedish) and […] (Indiana) mutations).
In a J17 pilot study (#1 pilot study) male and female J20 mice were housed singly and treated with J17 at 10 mkd by oral delivery for 28 days. […]

J20 mice [5] = test: J03 pilot study #2 in J20 mice (oral, longer duration); format: in vivo, mouse; conditions: oral delivery
Method: as §2
Based on these promising results, the study was repeated (pilot study #2) with oral delivery and a longer duration.

CRFR2 = molecular target: T2, CRFR2 (Homo sapiens, UniProt Q13324); test: CRFR2 binding (Ki)
T2 sequence (Q13324 1-411): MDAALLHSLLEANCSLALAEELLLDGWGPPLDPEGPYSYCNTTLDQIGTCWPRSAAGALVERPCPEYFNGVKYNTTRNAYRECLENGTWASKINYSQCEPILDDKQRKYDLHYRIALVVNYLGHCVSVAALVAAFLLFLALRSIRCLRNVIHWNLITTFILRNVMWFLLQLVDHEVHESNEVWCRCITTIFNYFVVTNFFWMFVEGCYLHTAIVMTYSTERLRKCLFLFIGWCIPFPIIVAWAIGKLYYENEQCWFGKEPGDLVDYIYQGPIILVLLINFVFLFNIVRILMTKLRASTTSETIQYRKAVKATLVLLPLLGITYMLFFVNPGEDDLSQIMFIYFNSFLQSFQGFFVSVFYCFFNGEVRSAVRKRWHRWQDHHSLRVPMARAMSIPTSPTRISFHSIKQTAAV

J20 mice [6] = test: J03 pilot study #1 in J20 mice (SQ, 12 days); format: in vivo, mouse; conditions: SQ 10 mkd
Method: as §2
In pilot study #1, J20 mice housed singly were treated by SQ injection of J02 in PEG/b-MCD at 10 mkd for 12 days. NOR analysis of object memory (N=5/group) was performed. […] There was no difference in Aβ1-40 (panel B), but a decrease in Aβ1-42 (panel C).

p-tau = test: Cortisol-induced (stress-induced) p-tau increase in vitro; format: cell-based
Source text: To identify therapeutic candidates, a clinical library of CRF-1R inhibitors to was screened to determine their effects on cortisol-induced p-tau increases. […] J03 was shown specifically to inhibit stress-induced p-tau increases by cortisol in vitro.

[7] = Secondary (SH-Sy5Y, CRF stimulation)
[8] = subcutaneous injection of 10 mg/kg

In the case of `CCC(COC)n1nnc2c(Nc3ccc(OC)cc3C)nc(C)nc21` (stereo not shown) [Compound J04], the Ki (CRF1; Tertiary, read-out: CRF1 Ki) is reported as 15 nM, the Tau % (SH-SY5Y cells [1]; Primary (SH-SY5Y)) is reported as “Unchanged” and the p-tau (SH-SY5Y cells [1]) is reported as “did lower p-tau, although not significantly”. The tau (SH-SY5Y cells [1]) was “did not lower”, the solubility (Solubility in DMSO) was about 10 mM (≈ 3560 µg/mL) and the brain levels ([2]; after SQ injection or oral delivery) was 55 ng/g. The PAMPA (PAMPA) was 0.44.

In the case of `CCC(COC)n1nnc2c(N(C)c3c(C)cc(C)cc3C)nc(C)nc21` (stereo not shown) [Compound J14], the Ki (CRF1; Tertiary, read-out: CRF1 Ki) is reported as 25 nM, the Tau % (SH-SY5Y cells [1]; Primary (SH-SY5Y)) is reported as “Unchanged” and the solubility (Solubility in DMSO) is reported as about 10 mM (≈ 3680 µg/mL). It also gave a PAMPA (PAMPA) of 1.11.

In the case of `CCC(COC)n1nnc2c(N(C)C3CCOCC3)nc(C)nc21` (stereo not shown) [Compound J15], the Ki (CRF1; Tertiary, read-out: CRF1 Ki) is reported as over 1000 nM, the Tau % (SH-SY5Y cells [1]; Primary (SH-SY5Y)) is reported as “Unchanged” and the “p-Tau (%)” value (SH-SY5Y cells [1]; Primary (SH-SY5Y)) is reported as “↓>10%”. The solubility (Solubility in DMSO) was about 10 mM (≈ 3340 µg/mL), the Tau % (SH-SY5Y cells [3]; [7]) was “↓>30%” and the “p-Tau (%)” value (SH-SY5Y cells [3]; [7]) was “↓>30%”. The “sAPPα (%)” value (SH-SY5Y cells [3]; [7]) was over 10% and the PAMPA (PAMPA) was 0.34.

In the case of `CCC(COC)n1nnc2c(N3CC(C)CC(C)C3)nc(C)nc21` (stereo not shown) [Compound J12], the Ki (CRF1; Tertiary, read-out: CRF1 Ki) is reported as over 1000 nM, the solubility (Solubility in DMSO) is reported as about 10 mM (≈ 3320 µg/mL) and the “sAPPα (%)” value (SH-SY5Y cells [3]; [7]) is reported as “Unchanged”. For the same compound, the PAMPA (PAMPA) was 2.39.

In the case of `CCC(COC)Nc1nc(C)nc2c1nnn2-c1ccc(OC)cc1C` (stereo not shown) [Compound J17], the novel object preference (J20 mice [4]) is reported as “increase with J17 was significant”, the sAPPα (J20 mice [4]) is reported as “increase with J03 but not J17” and the p-tau/tau ratio (J20 mice [4]; males) is reported as “lower still and just missed significance”. The sAPPα/sAPPβ ratio (J20 mice [4]; males) was “greater”, the “activity (total interactions)” value (J20 mice [4]) was “lowered” and the sAPPβ (J20 mice [4]; one high outlier eliminated) was “decrease”. The Ki (CRF1; Tertiary, read-out: CRF1 Ki) was 30 nM, the p-tau (SH-SY5Y cells [1]) was “significantly lower” and the tau (SH-SY5Y cells [1]) was “significantly lower”. For the same compound, the solubility (Solubility in DMSO) was about 10 mM (≈ 3560 µg/mL), the brain levels ([2]; oral delivery, 10 mg/kg) was about 50 ng/g and the “plasma levels relative to brain levels” value ([2]; oral delivery, 10 mg/kg) was about 10 fold. The brain levels [2, 8] was about 400 ng/g, the plasma levels [2, 8] was about 4000 ng/m and the “p-tau after CRF exposure” value (SH-SY5Y cells [3]) was “decreased”. For the same compound, the “tau after CRF exposure” value (SH-SY5Y cells [3]) was “decreased”, the “sAPPα after CRF exposure” value (SH-SY5Y cells [3]) was “same as control” and the “sAPPα (%)” value (SH-SY5Y cells [3]; [7]) was “Unchanged”. The “sAPPα with increasing concentrations of CRF” value (SH-SY5Y cells [3]; without CRF and at 50 nM CRF, FIG. 20) was “lack of increase” and the PAMPA (PAMPA) was 0.64.

With `CCC(COC)N(C)c1nc(C)nc2c1nnn2-c1ccc(OC)cc1C` (stereo not shown) [J20 HCl] the Tau % (SH-SY5Y cells [1]; Primary (SH-SY5Y)) was “Unchanged” and the solubility (Solubility in DMSO) was about 10 mM.

For `CCC(COC)n1nnc2c(Nc3ccc(OC)cc3C)nc(C)cc21` (stereo not shown) [Compound J03, N-(4-Methoxy-2-methylphenyl)-1-[1-(methoxymethyl)propyl]-6-methyl-1H-1,2,3-triazolo[4,5-c]pyridine-4-amine], the novel object preference (J20 mice [4]) was “increased novel object preference more than 17”, the sAPPα (J20 mice [4]) was “increase” and the sAPPα/sAPPβ ratio (J20 mice [4]; males) was “slight increase”. The “activity (total interactions)” value (J20 mice [4]) was “lowered”, the Ki (CRF1; Tertiary, read-out: CRF1 Ki) was 7 nM and the Ki (CRF1; read-out: CRF-1 antagonist Ki) was about 7.9 nM. The Tau % (SH-SY5Y cells [1]; Primary (SH-SY5Y)) was “Unchanged”, the p-tau (SH-SY5Y cells [1]) was “decreased” and the Aβ1-40 (J20 mice [5]) was “unchanged”. For the same compound, the Aβ1-40/Aβ1-42 ratio (J20 mice [5]) was “unchanged”, the Aβ1-42 (J20 mice [5]) was “unchanged” and the novel location assay (J20 mice [5]) was “performed well”. For the same compound, the novel object assay (J20 mice [5]) was “performed well”, the sAPPα (J20 mice [5]) was “increased slightly” and the sAPPα/sAPPβ ratio (J20 mice [5]) was “slightly increased”. For the same compound, the sAPPβ (J20 mice [5]) was “unchanged”, the p-tau (J20 mice [5]; decrease reached statistical significance) was “decreased” and the solubility (Solubility in DMSO) was about 10 mM (≈ 3550 µg/mL). For the same compound, the Ki (CRFR2) was over 10000 nM, the Aβ1-40 (J20 mice [6]) was “no difference” and the Aβ1-40/1-42 ratio (J20 mice [6]) was “significantly increased”. The Aβ1-42 (J20 mice [6]) was “decrease”, the P-tau (J20 mice [6]) was “significantly lower” and the “SAPP (sAPPα levels)” value (J20 mice [6]) was “very slightly increased”. The sAPP/Aβ1-42 ratio (J20 mice [6]) was “very slightly increased”, the p-tau/tau ratio (J20 mice [6]; great individual variation) was “slightly higher” and the Total tau (J20 mice [6]; largely due to one mouse) was “decreased”. For the same compound, the “behavior (NOR analysis of object memory)” value (J20 mice [6]; single housed J20 mice) was “slight improvement”, the brain levels ([2]; 10 mk subcutaneous (SQ) injection, J20 mice) was “low” and the concentration at 2 h ([2]; J20, mouse, brain, two hours after oral dosing in formulation, first day of pilot study #2) was 170 ng/g. The brain levels ([2]; end of pilot study #2, oral dosing) was “about 35 ng/g”, the p-tau/tau ratios (SH-SY5Y cells [3]; 50 and 100 nM CRF, FIG. 28 panel C) was “highly significantly decreased” and the sAPPα (SH-SY5Y cells [3]; FIG. 28 panel D, significance for J03 at 100 nM CRF) was “trend for sAPPα to be higher”. The “p-tau after CRF exposure” value (SH-SY5Y cells [3]) was “reduces; also recorded: decreased”, the “tau after CRF exposure” value (SH-SY5Y cells [3]) was “reduces; also recorded: decreased” and the “sAPPα after CRF exposure” value (SH-SY5Y cells [3]) was “lower”. For the same compound, the “sAPPα (%)” value (SH-SY5Y cells [3]; [7]) was “Unchanged”, the tau (SH-SY5Y cells [3]; absence of CRF and presence of 100 nM CRF, FIG. 28 panel A) was “significantly decreased” and the p-tau (SH-SY5Y cells [3]; presence and absence of CRF, FIG. 28 panel B) was “significantly reduced”. For the same compound, the “stress-induced p-tau increases by cortisol” value (p-tau) was “inhibit” and the PAMPA (PAMPA) was 0.92.

For `CCC(COC)n1nnc2c(Nc3ccc(OC)cc3OC)nc(C)nc21` (stereo not shown) [Compound J09], the Tau % (SH-SY5Y cells [1]; Primary (SH-SY5Y)) was “Unchanged” and the solubility (Solubility in DMSO) was about 10 mM (≈ 3720 µg/mL).
